Data on 67 compounds can be found in patent US20230119479A1, “A HISTONE DEACETYLASE INHIBITOR HAVING A NITROGEN-CONTAINING AROMATIC HETEROCYCLYL GROUP” (SHIONOGI & CO., LTD., priority 2019, published 2023).

pIC50: −log10 of the molar value.

The target in the experiment is T1, HDAC2 Human recombinant C-terminal FLAG-tag (Homo sapiens, UniProt Q92769).
T1 construct: FLAG (C); purchased BPS Bioscience 50052
Nature of the experiment: Measurement of HDAC2 enzyme inhibitory activity (HTRF). Format: biochemical. Conditions: recombinant HDAC2, H3K9ac peptide, 3 hours room temperature; read-out: HDAC2 IC50. The method, then:
Test Example 1: Measurement of HDAC2 Enzyme Inhibitory Activity
The HDAC2 enzyme inhibitory activity was measured by the method described in the following test example.
To each well of a 384-well plate (Corning, 4514), DMSO solution of the test compound was dispensed at 50 nL/well from a final concentration of 99 μM to 8 points (n=2) in the 3-fold dilution series using Echo555 (Beckman Coulter). 2.5 μl of 0.005 mg/mL recombinant enzyme HDAC2 (HDAC2 Human recombinant C-terminal FLAG-tag, BPS Bioscience, 50052) was added to each well, 2.5 μl of 0.6 μM H3K9ac peptide (Lys(Ac)9-Histone H3 (1-21)-GGK(Biotin), AnaSpec, 64361) was added, mixed, and reacted in a wet box at room temperature for 3 hours. 50 mM Tris HCL pH8.0, 137 mM sodium chloride, 2.7 mM potassium chloride, 1 mM magnesium chloride, 0.01% Tween20, and 0.1% BSA which were diluted with ultrapure water were used as a reaction buffer at this time. After the reaction, 5 μL of 10 μM SAHA (suberoylanilide hydroxamic acid) as a reaction terminator and the 5 μL of a mixture of 2.5 ng of H3K9me0 antibody (ActiveMotif, 61399) labeled in-house with europium cryptate (Cisbio, 65EUSABA) and 125 nM streptavidin-XL665 (Cisbio, 610SAXLA) as an HTRF (time-resolved fluorescence) reagent were added to each well, mixed, and allowed to stand in a wet box at room temperature for reaction. A detection buffer used at this time was 50 mM Tris HCL pH 8.0, 0.8 M potassium fluoride, and 0.1% BSA which were diluted with ultrapure water. After reacting for 2 hours or more, HTRF was measured using a multi-plate reader such as SpectraMax Paradigm (MOLECULAR DEVICE) or RUBYstar (BMG LABTECH). Ratio (665 nm/615-620 nm×10000) was calculated from the fluorescence values of two wavelengths, 615-620 nm and 665 nm, which were excited at 320-340 nm, and the energy transition was obtained.
(In general: TR-FRET usually uses a lanthanide donor and a delayed reading to cut background.)

T1 sequence (Q92769 whole entry): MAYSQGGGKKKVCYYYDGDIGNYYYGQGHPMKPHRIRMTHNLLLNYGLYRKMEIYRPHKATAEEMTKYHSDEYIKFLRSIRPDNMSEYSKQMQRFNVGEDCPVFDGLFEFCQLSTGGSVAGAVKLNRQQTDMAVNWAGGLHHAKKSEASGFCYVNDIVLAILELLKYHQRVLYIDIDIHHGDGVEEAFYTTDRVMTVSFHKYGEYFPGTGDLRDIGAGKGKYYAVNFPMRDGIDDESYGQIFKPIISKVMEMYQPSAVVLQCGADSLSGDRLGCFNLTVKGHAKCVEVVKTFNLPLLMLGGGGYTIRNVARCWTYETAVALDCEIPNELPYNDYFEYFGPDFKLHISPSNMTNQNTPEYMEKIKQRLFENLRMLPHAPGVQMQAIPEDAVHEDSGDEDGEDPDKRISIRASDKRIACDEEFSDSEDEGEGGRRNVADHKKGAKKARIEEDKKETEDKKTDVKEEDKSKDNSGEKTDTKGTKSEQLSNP

As usually defined, the pIC50 is −log10 of the IC50, conventionally taken in molar units. As for `Cc1cnc(C(=O)Nc2cc(-c3ccc(F)nc3)ccc2N)c(F)c1` [Compound I-209], the pIC50 was 6.82. With `Cc1ccc(C(=O)Nc2cc(-c3ccc(F)nc3)ccc2N)nc1F` [Compound I-210], the negative logarithm of the IC50 (pIC50) was 6.72. Take `CN(C)c1cnc(C(=O)Nc2nc(-n3cccc3)ccc2N)cn1` [Compound I-212]: the pIC50 is 6.08.

For `CN(C)c1cnc(C(=O)Nc2nc(-c3ccccc3)ccc2N)cn1` [Compound I-213], the pIC50 was 6.51.

On to `Cn1cc(-c2ccc(N)c(NC(=O)c3ccc4c(n3)OCO4)c2)cn1` [Compound I-216], for which the pIC50 was 7.00. As to `Nc1ccc(-c2ccccc2)nc1NC(=O)c1ccc2c(n1)OCO2` [Compound I-217], the negative-log IC50 (pIC50) is 6.47. On to `COCc1cnc(C(=O)Nc2cc(-c3ccc(F)nc3)ccc2N)cn1` [Compound I-218], for which the pIC50 is 6.82. Take `COCc1cnc(C(=O)Nc2cc(-c3cnn(C)c3)ccc2N)cn1` [Compound I-219]: the pIC50 is 6.51. For `CCN(C)c1cnc(C(=O)Nc2cc(-c3ccc(F)nc3)ccc2N)cn1` [Compound I-220], the pIC50 is 7.30.

Consider `Nc1ccc(-c2ccc(F)nc2)cc1NC(=O)c1cnc(N2CCC2)cn1` [Compound I-221], for which the pIC50 is 7.30.

Consider `Nc1ccc(-c2ccc(F)nc2)cc1NC(=O)c1cnc(N2CC(CO)(CCl)C2)cn1` [Compound I-222], for which the negative-log IC50 (pIC50) is 7.10. Turning to `Nc1ccc(-c2ccc(F)nc2)cc1NC(=O)c1cnc(N2CC3(CCC3)C2)cn1` [Compound I-223], the pIC50 was 7.05.

For the compound `Nc1ccc(-c2ccc(F)nc2)cc1NC(=O)c1cnc(N2CC(Cl)(CCO)C2)cn1` [Compound I-224], the pIC50 is 7.00.

For `Nc1ccc(-c2ccc(F)nc2)cc1NC(=O)c1cnc(N2CCC2(CO)CCl)cn1` (stereo not shown) [Compound I-225], the pIC50 is 7.05. As to `CN(C)c1ccc(C(=O)Nc2nc(-n3cccc3)ccc2N)nc1` [Compound I-226], the pIC50 was 6.35.

Consider `CN(C)c1cnc(C(=O)Nc2nc(-c3cnn(C)c3)ccc2N)cn1` [Compound I-228], for which the pIC50 was 6.20. Under `COCCOc1cnc(C(=O)Nc2cc(-c3ccc(F)nc3)ccc2N)cn1` [Compound I-229] stands 6.89. Regarding `COCCOc1cnc(C(=O)Nc2cc(-c3cnn(C)c3)ccc2N)cn1` [Compound I-230], the pIC50 was 6.60.

Regarding `COCCOc1cnc(C(=O)Nc2nc(-c3ccccc3)ccc2N)cn1` [Compound I-231], the pIC50 is 6.07.

For `COCCOc1cnc(C(=O)Nc2nc(-n3cccc3)ccc2N)cn1` [Compound I-232], the pIC50 was 6.49. Regarding `Nc1ccc(-c2ccccc2)nc1NC(=O)c1ccc2c(n1)OCC(=O)N2` [Compound I-233], the pIC50 was 6.55. Take `Nc1ccc(-n2cccc2)nc1NC(=O)c1ccc2c(n1)OCC(=O)N2` [Compound I-234]: the pIC50 is 6.62. In the case of `Nc1ccc(-c2ccc(F)nc2)cc1NC(=O)c1cnc(N2CC3(CCO3)C2)cn1` [Compound I-235], the pIC50 was 7.22. `Nc1ccc(-c2ccc(F)nc2)cc1NC(=O)c1cnc(N2CCC23COC3)cn1` [Compound I-236]: the pIC50 is 7.15. Consider `CCN(C)c1cnc(C(=O)Nc2cc(-c3cnn(C)c3)ccc2N)cn1` [Compound I-237], for which the pIC50 is 6.80. For `Cn1cc(-c2ccc(N)c(NC(=O)c3cnc(N4CCC4)cn3)c2)cn1` [Compound I-238], the pIC50 was 6.82. As for `Nc1ccc(-c2ccc(F)nc2)cc1NC(=O)c1cnc(Cl)cn1` [Compound I-239], the pIC50 is 6.64. On to `Nc1ccc(-c2ccc(F)nc2)cc1NC(=O)c1cnc(N2CCCC2)cn1` [Compound I-240], for which the pIC50 is 7.10. For the compound `Cn1cc(-c2ccc(N)c(NC(=O)c3cnc(N4CCCC4)cn3)c2)cn1` [Compound I-241], the pIC50 was 6.85. In the case of `CC(C)Nc1cnc(C(=O)Nc2cc(-c3ccc(F)nc3)ccc2N)cn1` [Compound I-242], the pIC50 was 7.40. As for `Nc1ccc(-c2ccc(F)nc2)cc1NC(=O)c1ccc(C2CCC2)cn1` [Compound I-243], the negative logarithm of the IC50 (pIC50) is 6.59. Under `CC(=O)N(C)c1cnc(C(=O)Nc2cc(-c3cnn(C)c3)ccc2N)cn1` [Compound I-244] stands 6.33; under `Nc1ccc(-c2ccc(F)nc2)cc1NC(=O)c1cnc(N2CC3(COC3)C2)cn1` [Compound I-245], 7.15; under `Nc1ccc(-c2ccc(F)nc2)cc1NC(=O)c1ccc(C2COC2)cn1` [Compound I-246], 6.96. For `CN(C)c1cnc(C(=O)Nc2nc(-c3ccc(F)nc3)ccc2N)cn1` [Compound I-247], the pIC50 is 6.42. As for `CC(=O)N(C)c1cnc(C(=O)Nc2cc(-c3ccc(F)nc3)ccc2N)cn1` [Compound I-248], the pIC50 was 6.66. As for `CCc1cnc(C(=O)Nc2cc(-c3ccc(F)nc3)ccc2N)cn1` [Compound I-249], the pIC50 is 7.15. With `CC(C)c1cnc(C(=O)Nc2cc(-c3ccc(F)nc3)ccc2N)cn1` [Compound I-251], the pIC50 is 6.96. With `CC(C)c1cnc(C(=O)Nc2cc(-c3cnn(C)c3)ccc2N)cn1` [Compound I-252], the pIC50 was 6.77. Under `COc1ccc(C(=O)Nc2cc(-c3ccc(F)nc3)ccc2N)nn1` [Compound I-253] stands 6.82. Under `Cn1cc(-c2ccc(N)c(NC(=O)c3cc4c(cn3)OCCC4)c2)cn1` [Compound I-255] stands 6.39; under `Cc1ccc(C(=O)Nc2cc(-c3ccc(F)nc3)ccc2N)nn1` [Compound I-256], 6.59. Take `Cc1ccc(C(=O)Nc2cc(-c3cnn(C)c3)ccc2N)nn1` [Compound I-257]: the pIC50 was 6.24. For the compound `COc1cnc(C(=O)Nc2cc(-c3cnn(C)c3)ccc2N)nc1` [Compound I-258], the pIC50 is 6.06.

As to `COc1cnc(C(=O)Nc2cc(-c3ccc(F)nc3)ccc2N)nc1` [Compound I-259], the pIC50 is 6.47. Consider `CCc1cnc(C(=O)Nc2nc(-c3ccccc3)ccc2N)cn1` [Compound I-260], for which the pIC50 is 6.33. As to `CCc1cnc(C(=O)Nc2nc(-n3cccc3)ccc2N)cn1` [Compound I-261], the pIC50 is 6.59. The value for `Nc1ccc(-c2ccc(F)nc2)cc1NC(=O)c1ccc(N2CCOCC2)nn1` [Compound I-262] was 7.00; that for `CN(C)c1ccc(C(=O)Nc2cc(-c3ccc(F)nc3)ccc2N)nn1` [Compound I-263] was 6.92. With `Nc1ccc(-c2ccc(F)nc2)cc1NC(=O)c1ccc(Cl)nn1` [Compound I-264], the pIC50 is 6.57.

In the case of `CC(=O)Nc1ccc(C(=O)Nc2cc(-c3cnn(C)c3)ccc2N)nc1` [Compound I-265], the pIC50 was 7.05.

On to `Nc1ccc(-c2ccc(F)nc2)cc1NC(=O)c1ccc(N2CCC2)nn1` [Compound I-266], for which the negative logarithm of the IC50 (pIC50) is 6.85. The value for `Nc1ccc(-n2ccc(F)c2)cc1NC(=O)c1cnc(N2CCOCC2)cn1` [Compound I-267] was 7.00. On to `CCOc1ccc(C(=O)Nc2cc(-c3ccc(F)nc3)ccc2N)nn1` [Compound I-268], for which the pIC50 is 6.89. For `CCOc1ccc(C(=O)Nc2cc(-c3cnn(C)c3)ccc2N)nn1` [Compound I-269], the pIC50 was 6.74. Turning to `Cn1cc(-c2ccc(N)c(NC(=O)c3ccc(Cl)nn3)c2)cn1` [Compound I-270], the pIC50 was 6.01. On to `Nc1ccc(-c2ccc(F)nc2)cc1NC(=O)c1ccc(N2CCCC2)nn1` [Compound I-271], for which the pIC50 was 7.05. Take `Cn1cc(-c2ccc(N)c(NC(=O)c3ccc(N4CCCC4)nn3)c2)cn1` [Compound I-272]: the pIC50 is 6.64. Regarding `CC(C)Nc1ccc(C(=O)Nc2cc(-c3ccc(F)nc3)ccc2N)nn1` [Compound I-273], the pIC50 was 6.64. In the case of `CN(C)c1ccc(C(=O)Nc2cc(-c3cnn(C)c3)ccc2N)nn1` [Compound I-274], the pIC50 is 6.62. As to `Cn1cc(-c2ccc(N)c(NC(=O)c3ccc(N4CCOCC4)nn3)c2)cn1` [Compound I-275], the pIC50 was 6.59. On to `CN(Cc1ccccn1)c1cnc(C(=O)Nc2cc(-c3ccc(F)nc3)ccc2N)cn1` [Compound I-276], for which the pIC50 was 7.40. On to `Nc1ccc(-c2ccc(F)nc2)cc1NC(=O)c1cnc(NCc2ccccn2)cn1` [Compound I-277], for which the pIC50 is 7.40. With `Nc1ccc(-c2ccc(F)nc2)cc1NC(=O)c1cnc(N2CCCOCC2)cn1` [Compound I-278], the pIC50 is 7.30. The value for `Nc1ccc(-c2ccc(F)nc2)cc1NC(=O)c1cnc(N2Cc3cccnc3C2)cn1` [Compound I-279] was 7.30.

With `CC(=O)Nc1ccc(C(=O)Nc2nc(-c3ccccc3)ccc2N)nc1` [Compound I-281], the pIC50 is 6.64. Regarding `Nc1ccc(-c2ccc(F)nc2)cc1NC(=O)c1cnc(N2CC(O)C2)cn1` [Compound I-282], the pIC50 is 7.30.
